Molecules are shown by their SMILES.

Consider 37 molecules from paper PMC12459614 (European journal of medicinal chemistry, 2025).

In one test the test system is GPR17. The settings on record: cited from earlier work.
Test [1] deals with T1, hGPR17L (Homo sapiens, UniProt Q13304). The test is described as follows: Calcium mobilization assay. The note with it: for antagonist activity at GPR17: calcium mobilization assay, data not shown; for Emax: 1321-N1, read-out: % Efficacy Avg ± SEM; for IC50 / Calcium assay IC50(μM) Avg ± SEM: reported only when efficacy ≥75%. The format is cell-based. Background: Calcium flux is commonly read through the fluorescence of an indicator in the cells.

For test [2], the target named is T1, hGPR17L. Nature of the test: cAMP signaling in GLUTag cells expressing hGPR17L. The format is cell-based. The settings on record: for attenuation of MDL-mediated inhibition of forskolin-stimulated cAMP: 10 μM compound, 100 nM MDL, 10 μM forskolin.
In test [3] the target is T1, hGPR17L. Nature of the test: GLP-1 secretion assay in GLUTag cells expressing hGPR17L. The format is cell-based. The note with it: 10 μM compound; 6.3 μM MDL; 10 μM forskolin and 10 μM IBMX.
The mark [4] stands for this setting: Calcium Assay IC50(μM) Avg ± SEM, Table 2.
[5] abbreviates: Calcium assay IC50(μM) Avg ± SEM, Table 3.

T1 sequence (Q13304 whole entry): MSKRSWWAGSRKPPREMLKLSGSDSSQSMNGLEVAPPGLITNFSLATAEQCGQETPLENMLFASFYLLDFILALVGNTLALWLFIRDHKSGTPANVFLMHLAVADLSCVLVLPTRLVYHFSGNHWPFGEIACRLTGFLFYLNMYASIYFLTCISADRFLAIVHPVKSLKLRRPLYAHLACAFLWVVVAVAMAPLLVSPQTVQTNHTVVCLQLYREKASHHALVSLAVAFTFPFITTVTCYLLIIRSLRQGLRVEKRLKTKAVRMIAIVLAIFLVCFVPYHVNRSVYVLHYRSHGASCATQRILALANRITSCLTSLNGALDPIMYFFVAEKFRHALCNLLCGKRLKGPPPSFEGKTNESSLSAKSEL

Take `O=C(O)c1ccc(OCCCc2ccc(OCCCCOc3ccccc3)cc2)c(C(=O)NC2CCCC(C(=O)O)C2)c1` (centres unmarked) [BayCysLT2, reference compound]: the “block of MDL-stimulated receptor activation of GPR17” value with GPR17 is “completely”. Further, the “antagonist activity at GPR17” value on hGPR17L [1] was “full antagonist activity”.

As for `COc1cc(C(=O)NC2CCCc3c2[nH]c2c(Cl)cccc32)cc(OC)c1OC` (centres unmarked) [Compd 2, N-(8-Chloro-2,3,4,9-tetrahydro-1H-carbazol-1-yl)-3,4,5-trimethoxybenzamide], the Emax on hGPR17L [1] came to 47.4 ± 3.11%.

For orientation: IC50 means the concentration at which inhibition is half-maximal. As for `O=C(NC1CCCc2c1[nH]c1c(Cl)cccc21)c1ccc2c(c1)OCO2` (centres unmarked) [Compd 3, N-(8-Chloro-2,3,4,9-tetrahydro-1H-carbazol-1-yl)benzo[d][1,3]dioxole-5-carboxamide], on hGPR17L [1], the Emax worked out at 77.4 ± 3.46%. Also, the IC50 on hGPR17L [1] (setting [4]) was 11.4 ± 0.59 µM.

Regarding `COc1ccc(C(=O)NC2CCCc3c2[nH]c2c(Cl)cccc32)cc1C` (centres unmarked) [Compd 4, N-(8-Chloro-2,3,4,9-tetrahydro-1H-carbazol-1-yl)-4-methoxy-3-methylbenzamide], the Emax at hGPR17L [1] is 81.5 ± 1.23%. Also, the concentration for half-maximal inhibition (IC50) on hGPR17L [1] (setting [4]) was 10.7 ± 0.29 µM.

Take `COc1ccc(C(=O)NC2CCCc3c2[nH]c2c(Cl)cccc32)cc1S(C)(=O)=O` (centres unmarked) [Compd 5, N-(8-Chloro-2,3,4,9-tetrahydro-1H-carbazol-1-yl)-4-methoxy-3-(methylsulfonyl)benzamide]: the Emax on hGPR17L [1] turned out to be 50.6 ± 3.54%.

With `CS(=O)(=O)c1ccc(C(=O)NC2CCCc3c2[nH]c2c(Cl)cccc32)cc1F` (centres unmarked) [Compd 6, N-(8-Chloro-2,3,4,9-tetrahydro-1H-carbazol-1-yl)-3-fluoro-4-(methylsulfonyl)benzamide], the Emax at hGPR17L [1] amounted to 38 ± 2.73%.

In the case of `CS(=O)(=O)c1ccc(C(=O)NC2CCCc3c2[nH]c2c(Cl)cccc32)cc1[N+](=O)[O-]` (centres unmarked) [Compd 7, N-(8-Chloro-2,3,4,9-tetrahydro-1H-carbazol-1-yl)-4-(methylsulfonyl)-3-nitrobenzamide], the Emax at hGPR17L [1] was 117 ± 6.08%. Moreover, the 50% inhibitory concentration (IC50) on hGPR17L [1] (setting [4]) turned out to be 4.42 ± 0.34 µM.

Turning to `O=C(NC1CCCc2c1[nH]c1c(Cl)cccc21)c1ccc([N+](=O)[O-])c([N+](=O)[O-])c1` (centres unmarked) [Compd 8, N-(8-Chloro-2,3,4,9-tetrahydro-1H-carbazol-1-yl)-3,4-dinitrobenzamide], the “attenuation of MDL-mediated inhibition of forskolin-stimulated cAMP” value on hGPR17L [2] is on record as “significantly attenuated”. For the same molecule, the Emax at hGPR17L [1] was 74.1 ± 2.16%.

Turning to `COc1cc(C(=O)NC2CCCc3c2[nH]c2c(Cl)cccc32)ccc1F` (centres unmarked) [Compd 9, N-(8-Chloro-2,3,4,9-tetrahydro-1H-carbazol-1-yl)-4-fluoro-3-methoxybenzamide], the Emax on hGPR17L [1] was 90.3 ± 7.04%. Further, the IC50 on hGPR17L [1] (setting [4]) was found to be 12.6 ± 0.89 µM.

`Cc1cc(C(=O)NC2CCCc3c2[nH]c2c(Cl)cccc32)ccc1Br` (centres unmarked) [Compd 10, 4-Bromo-N-(8-chloro-2,3,4,9-tetrahydro-1H-carbazol-1-yl)-3-methylbenzamide]: the Emax on hGPR17L [1] came out at 52.8 ± 2.26%.

Take `Cc1cc([N+](=O)[O-])ccc1C(=O)NC1CCCc2c1[nH]c1c(Cl)cccc21` (centres unmarked) [Compd 11, N-(8-Chloro-2,3,4,9-tetrahydro-1H-carbazol-1-yl)-2-methyl-4-nitrobenzamide]: the Emax on hGPR17L [1] stood at 29.8 ± 1.21%.

On to `O=C(NC1CCCc2c1[nH]c1c(Cl)cccc21)c1c(F)cc([N+](=O)[O-])cc1F` (centres unmarked) [Compd 12, N-(8-chloro-2,3,4,9-tetrahydro-1H-carbazol-1-yl)-2,6-difluoro-4-nitrobenzamide], for which the Emax on hGPR17L [1] amounted to 44.3 ± 3.47%.

As to `O=C(NC1CCCc2c1[nH]c1c(Cl)cccc21)c1ccc(F)c([N+](=O)[O-])c1` (centres unmarked) [Compd 13, N-(8-chloro-2,3,4,9-tetrahydro-1H-carbazol-1-yl)-4-fluoro-3-nitrobenzamide], the Emax on hGPR17L [1] was found to be 101 ± 9.98%. The half-inhibitory concentration (IC50) at hGPR17L [1] (setting [4]) stood at 11.6 ± 1.19 µM.

Take `O=C(NC1CCCc2c1[nH]c1c(Cl)cccc21)C(NS(=O)(=O)c1cccs1)c1ccccc1` (centres unmarked) [Compd 14, N-(8-Chloro-2,3,4,9-tetrahydro-1H-carbazol-1-yl)-2-phenyl-2-(thiophene-2-sulfonamido)acetamide]: on hGPR17L [1], the Emax amounted to 104 ± 9.32%. The 50% inhibitory concentration (IC50) on hGPR17L [1] (setting [4]) was 7.94 ± 0.49 µM.

Regarding `O=C(O)c1ccc(C(=O)NC2CCCc3c2[nH]c2c(Cl)cccc32)cc1` (centres unmarked) [Compd 15, 4-((8-Chloro-2,3,4,9-tetrahydro-1H-carbazol-1-yl)carbamoyl)benzoic acid], the “attenuation of MDL-mediated inhibition of GLP-1 secretion” value at hGPR17L [3] is “significantly attenuated”. Further, on hGPR17L [2], the “attenuation of MDL-mediated inhibition of forskolin-stimulated cAMP” value was “significantly attenuated”. The Emax at hGPR17L [1] was 49.4 ± 2.45%.

`O=C(NC1CCCc2c1[nH]c1c(Cl)cccc21)c1ccc(Br)cc1` (centres unmarked) [Compd 16, 4-Bromo-N-(8-chloro-2,3,4,9-tetrahydro-1H-carbazol-1-yl)benzamide]: the Emax at hGPR17L [1] was found to be 40.4 ± 4.47%.

Take `Cc1ccc(C(=O)NC2CCCc3c2[nH]c2c(Cl)cccc32)cc1` (centres unmarked) [Compd 17, N-(8-chloro-2,3,4,9-tetrahydro-1H-carbazol-1-yl)-4-methylbenzamide]: on hGPR17L [1], the Emax was 62.6 ± 4.84%.

Consider `COc1ccc(C(=O)NC2CCCc3c2[nH]c2ccccc32)cc1OC` (centres unmarked) [Compd 18, 3,4-Dimethoxy-N-(2,3,4,9-tetrahydro-1H-carbazol-1-yl)benzamide], for which the Emax on hGPR17L [1] amounted to 72.1 ± 4.2%. For the same molecule, at hGPR17L [1] (setting [5]), the 50% inhibitory concentration (IC50) was found to be 9.44 ± 1.25 µM.

As for `COc1ccc(C(=O)NC2CCCc3c2[nH]c2c(Br)cccc32)cc1OC` (centres unmarked) [Compd 19, N-(8-Bromo-2,3,4,9-tetrahydro-1H-carbazol-1-yl)-3,4-dimethoxybenzamide], on hGPR17L [1], the Emax was found to be 125 ± 4.3%. On hGPR17L [1] (setting [5]), the half-maximal inhibitory concentration (IC50) came out at 4.29 ± 0.48 µM.

In the case of `COc1cc(OC)cc(C(=O)NC2CCCc3c2[nH]c2c(Br)cccc32)c1` (centres unmarked) [Compd 20, N-(8-bromo-2,3,4,9-tetrahydro-1H-carbazol-1-yl)-3,5-dimethoxybenzamide], at hGPR17L [1], the Emax is 55.5 ± 1.74%.

With `COc1ccc(C(=O)NC2CCCc3c2[nH]c2c(C)cc(C)cc32)cc1OC` (centres unmarked) [Compd 21, N-(6,8-Dimethyl-2,3,4,9-tetrahydro-1H-carbazol-1-yl)-3,4-dimethoxybenzamide], the “attenuation of MDL-mediated inhibition of forskolin-stimulated cAMP” value on hGPR17L [2] is recorded as “significantly attenuated”. Moreover, the Emax on hGPR17L [1] was 87.5 ± 0.92%. Also, the IC50 at hGPR17L [1] (setting [5]) was determined as 12.2 ± 0.5 µM.

As to `COc1cc(OC)cc(C(=O)NC2CCCc3c2[nH]c2c(C)cc(C)cc32)c1` (centres unmarked) [Compd 22, N-(6,8-Dimethyl-2,3,4,9-tetrahydro-1H-carbazol-1-yl)-3,5-dimethoxybenzamide], the Emax on hGPR17L [1] is 68.2 ± 1.59%.

Turning to `COc1ccc(C(=O)NC2CCCc3c2[nH]c2c(C)ccc(C)c32)cc1OC` (centres unmarked) [Compd 23, N-(5,8-dimethyl-2,3,4,9-tetrahydro-1H-carbazol-1-yl)-3,4-dimethoxybenzamide], the Emax at hGPR17L [1] was 83.7 ± 2.39%. Besides, the IC50 on hGPR17L [1] (setting [5]) was determined as 11.8 ± 0.5 µM.

Consider `COc1ccc(C(=O)NC2CCCc3c2[nH]c2c(C(=O)O)cccc32)cc1OC` (centres unmarked) [Compd 24, 1-(3,4-Dimethoxybenzamido)-2,3,4,9-tetrahydro-1H-carbazole-8-carboxylic acid], for which the “Calcium assay IC50(μM) Avg ± SEM” value at hGPR17L [1] (Table 3) is “inactive”.

In the case of `COc1ccc(C(=O)NC2CCCc3c2[nH]c2cc(C(=O)O)ccc32)cc1OC` (centres unmarked) [Compd 25, 1-(3,4-Dimethoxybenzamido)-2,3,4,9-tetrahydro-1H-carbazole-7-carboxylic acid], the “Calcium assay IC50(μM) Avg ± SEM” value at hGPR17L [1] (Table 3) is “inactive”.

As to `COc1ccc(C(=O)NC2CCCc3c2[nH]c2ccc(C(=O)O)cc32)cc1OC` (centres unmarked) [Compd 26, 1-(3,4-Dimethoxybenzamido)-2,3,4,9-tetrahydro-1H-carbazole-6-carboxylic acid], on hGPR17L [1] (Table 3), the “Calcium assay IC50(μM) Avg ± SEM” value is “inactive”.

As for `C=C[C@@]1(C)CC(=O)[C@]2(O)[C@@]3(C)[C@@H](O)CCC(C)(C)[C@@H]3[C@H](O)[C@H](OC(C)=O)[C@@]2(C)O1` [Forskolin, forskolin, reference compound], the “cAMP levels after forskolin stimulation” value at hGPR17L [2] (forskolin alone, basal 0.59 ± 0.04 nM) was found to be 4.7 ± 0.36 nM.

On to `CN(C)C(=O)CCSC(SCCC(=O)O)c1cccc(/C=C/c2ccc3ccc(Cl)cc3n2)c1` (centres unmarked) [MK571, reference compound], for which the “antagonist activity at GPR17” value on hGPR17L [1] is “no antagonist activity”.

In the case of `COc1cccc(-c2ccccc2-c2ccc(C(=O)Nc3ccc(OC)cc3C(=O)O)o2)c1` [PSB-22269], in the test with GPR17, the “potency in a binding assay and functional assays” value was “nanomolar range potency”.

Consider `CSCCNc1nc(SCCC(F)(F)F)nc2c1ncn2[C@@H]1O[C@H](COP(=O)(O)OP(=O)(O)C(Cl)(Cl)P(=O)(O)O)[C@@H](O)[C@H]1O` [cangrelor], for which the “block of MDL-stimulated receptor activation” value in the test with GPR17 is given as “failed to block”.

For `COC(=O)[C@H](c1ccccc1Cl)N1CCc2sccc2C1` [clopidogrel, reference compound], the “antagonist activity at GPR17” value on hGPR17L [1] was “do not observe antagonist activity”.

Regarding `CC(C)(O)c1ccccc1CC[C@@H](SCC1(CC(=O)O)CC1)c1cccc(/C=C/c2ccc3ccc(Cl)cc3n2)c1` [montelukast, reference compound], in the test on GPR17, the “block of MDL-stimulated receptor activation of GPR17” value is “partially”. Besides, the “antagonist activity at GPR17” value on hGPR17L [1] was “partial antagonist activity”.

For `CC(=O)Oc1cc2c(s1)CCN(C(C(=O)C1CC1)c1ccccc1F)C2` (centres unmarked) [prasugrel, reference compound], the “antagonist activity at GPR17” value on hGPR17L [1] is given as “do not observe antagonist activity”.

As for `CCCSc1nc(N[C@@H]2C[C@H]2c2ccc(F)c(F)c2)c2nnn([C@@H]3C[C@H](OCCO)[C@@H](O)[C@H]3O)c2n1` [ticagrelor], in the test on GPR17, the “block of MDL-stimulated receptor activation” value is given as “failed to block”.

Regarding `Clc1ccccc1CN1CCc2sccc2C1` [ticlopidine, reference compound], on hGPR17L [1], the “antagonist activity at GPR17” value is recorded as “do not observe antagonist activity”.

On to `CCCc1c(OCCCCc2nnn[nH]2)ccc(C(C)=O)c1O` [tomelukast, reference compound], for which the “antagonist activity at GPR17” value at hGPR17L [1] is reported as “partial antagonist activity”.

Turning to `COc1cc(C(=O)NS(=O)(=O)c2ccccc2C)ccc1Cc1cn(C)c2ccc(NC(=O)OC3CCCC3)cc12` [zafirlukast, reference compound], the “antagonist activity at GPR17” value at hGPR17L [1] is on record as “full antagonist activity”.
